Laboratory results from PubChem BioAssay AID248 (DTP/NCI, 2004).
Where “and” joins values, the source holds several entries; their conditions need not be identical. Equal entries are not always repeated. Inconclusive results and toxic doses are left out. No stated cut-off is given here; in the data, active means T/C of 150% or more; inactive means T/C below 125%.

Tested on: L1210 leukemia ip in BDF1 mice, survival T/C
Assay: NCI In Vivo Anticancer Drug Screen. Data for tumor model L1210 Leukemia (intraperitoneal) in B6D2F1 (BDF1) mice
Details: endpoint: mean survival time, higher = longer survival
Summary of the method: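 Value reflects the ratio of survival in compound-treated mice to survival in vehicle-treated controls, with both groups carrying the same transplanted tumor.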

[1] = dose: 100.0 mg/kg/injection, schedule: Q01DX001 (ip), vehicle: saline
[2] = dose: 200.0 mg/kg/injection, schedule: Q01DX001 (ip), vehicle: saline
[3] = dose: 400.0 mg/kg/injection, schedule: Q01DX001 (ip), vehicle: saline
[4] = dose: 100.0 mg/kg/injection, schedule: Q01DX009 (ip), vehicle: saline with Tween-80
[5] = dose: 100.0 mg/kg/injection, schedule: Q04DX003 (ip), vehicle: saline with Tween-80
[6] = dose: 200.0 mg/kg/injection, schedule: Q01DX009 (ip), vehicle: saline with Tween-80
[7] = dose: 200.0 mg/kg/injection, schedule: Q04DX003 (ip), vehicle: saline with Tween-80
[8] = dose: 400.0 mg/kg/injection, schedule: Q04DX003 (ip), vehicle: saline with Tween-80
[9] = dose: 100.0 mg/kg/injection, schedule: Q01DX009 (ip), vehicle: Klucel (hydroxypropylcellulose) (HPC)
[10] = dose: 100.0 mg/kg/injection, schedule: Q04DX003 (ip), vehicle: Klucel (hydroxypropylcellulose) (HPC)
[11] = dose: 200.0 mg/kg/injection, schedule: Q01DX009 (ip), vehicle: Klucel (hydroxypropylcellulose) (HPC)
[12] = dose: 200.0 mg/kg/injection, schedule: Q04DX003 (ip), vehicle: Klucel (hydroxypropylcellulose) (HPC)
[13] = dose: 400.0 mg/kg/injection, schedule: Q01DX009 (ip), vehicle: Klucel (hydroxypropylcellulose) (HPC)
[14] = dose: 400.0 mg/kg/injection, schedule: Q04DX003 (ip), vehicle: Klucel (hydroxypropylcellulose) (HPC)
[15] = dose: 100.0 mg/kg/injection, schedule: Q04DX002 (ip), vehicle: Klucel (hydroxypropylcellulose) (HPC)
[16] = dose: 200.0 mg/kg/injection, schedule: Q04DX002 (ip), vehicle: Klucel (hydroxypropylcellulose) (HPC)
[17] = dose: 400.0 mg/kg/injection, schedule: Q04DX002 (ip), vehicle: Klucel (hydroxypropylcellulose) (HPC)
[18] = dose: 100.0 mg/kg/injection, schedule: Q04DX003 (ip), vehicle: saline
[19] = dose: 25.0 mg/kg/injection, schedule: Q01DX001 (ip), vehicle: Klucel (hydroxypropylcellulose) (HPC)
[20] = dose: 50.0 mg/kg/injection, schedule: Q01DX001 (ip), vehicle: Klucel (hydroxypropylcellulose) (HPC)
[21] = dose: 400.0 mg/kg/injection, schedule: Q01DX009 (ip), vehicle: saline with Tween-80
[22] = dose: 50.0 mg/kg/injection, schedule: Q01DX009 (ip), vehicle: Klucel (hydroxypropylcellulose) (HPC)

Measured: T/C

NC(CSS(=O)(=O)O)=NCCC1=NCCN1
inactive: dose: 25.0 mg/kg/injection, schedule: Q04DX002 (ip), vehicle: saline 101 % of control | dose: 50.0 mg/kg/injection, schedule: Q04DX002 (ip), vehicle: saline 101 % of control | dose: 100.0 mg/kg/injection, schedule: Q04DX002 (ip), vehicle: saline 101 % of control | dose: 200.0 mg/kg/injection, schedule: Q04DX002 (ip), vehicle: saline 96 % of control and 107 % of control | dose: 400.0 mg/kg/injection, schedule: Q04DX002 (ip), vehicle: saline 115 % of control

COc1ccccc1/C(C)=N\NC(N)=O
inactive: [1] 97 % of control | [2] 93 % of control | [3] 103 % of control

COc1ccccc1Cl
inactive: [4] 94 % of control | [5] 106 % of control | [6] 86 % of control | [7] 104 % of control | [8] 93 % of control

COc1cc(C)c(Cl)c(C)c1C(C)=O
inactive: [9] 101 % of control | [10] 95 % of control | [11] 100 % of control | [12] 101 % of control | [13] 101 % of control | [14] 97 % of control

CCOC(=O)c1ccnc2ccc(OC)cc12
inactive: dose: 100.0 mg/kg/injection, schedule: Q04DX002 (ip), vehicle: saline with Tween-80 91 % of control | dose: 200.0 mg/kg/injection, schedule: Q04DX002 (ip), vehicle: saline with Tween-80 100 % of control | dose: 400.0 mg/kg/injection, schedule: Q04DX002 (ip), vehicle: saline with Tween-80 104 % of control

Nc1ccc(Oc2ccc(Cl)cc2)c(Cl)c1
inactive: [4] 103 % of control | [10] 103 % of control | [6] 94 % of control | [12] 92 % of control | [14] 111 % of control

OCC1CCCCC1CO (centres undefined)
inactive: [15] 113 % of control | [16] 107 % of control | [17] 103 % of control

C=CCc1cc(CN(C)CCO)c(O)c(OC)c1
inactive: dose: 25.0 mg/kg/injection, schedule: Q04DX003 (ip), vehicle: saline 95 % of control | dose: 50.0 mg/kg/injection, schedule: Q04DX003 (ip), vehicle: saline 95 % of control | [18] 91 % of control

O=c1c(N=Nc2ccc(Cl)cc2)c(O)n(-c2ccccc2Cl)c(=S)n1-c1ccccc1
inactive: [19] 92 % of control | [20] 94 % of control | dose: 100.0 mg/kg/injection, schedule: Q01DX001 (ip), vehicle: Klucel (hydroxypropylcellulose) (HPC) 89 % of control

CCN(Cc1ccccc1)C(=S)Nc1ccccc1
inactive: [15] 96 % of control | [16] 108 % of control | [17] 101 % of control

Nc1cc(O)cc(O)c1
inactive: [4] 95 % of control | [5] 91 % of control | [6] 95 % of control | [7] 98 % of control | [21] 102 % of control | [8] 89 % of control

Cc1ccc([PH+](c2ccc(C)cc2)c2ccc(C)cc2)cc1.Cc1ccc([PH+](c2ccc(C)cc2)c2ccc(C)cc2)cc1.[Cl][Hg][Cl]
inactive: [22] 86 % of control | [9] 91 % of control | [11] 86 % of control

Cc1ccc(S(=O)(=O)OC2CS(=O)(=O)C2)cc1
inactive: [4] 100 % of control | [5] 105 % of control | [6] 95 % of control | [7] 100 % of control | [21] 105 % of control | [8] 97 % of control

O=C(c1ccccc1)C(C(C(=O)c1ccccc1)N1CCOCC1)N1CCOCC1 (centres undefined)
inactive: dose: 50.0 mg/kg/injection, schedule: Q01DX001 (ip), vehicle: saline 94 % of control | [1] 94 % of control | [2] 102 % of control | [3] 94 % of control

O=C(O)C(O)Cc1ccccc1 (centres undefined)
inactive: dose: 90.0 mg/kg/injection, schedule: Q04DX003 (ip), vehicle: saline 105 % of control | [18] 100 % of control and 107 % of control | dose: 135.0 mg/kg/injection, schedule: Q04DX003 (ip), vehicle: saline 100 % of control | dose: 200.0 mg/kg/injection, schedule: Q04DX003 (ip), vehicle: saline 102 % of control and 107 % of control | dose: 300.0 mg/kg/injection, schedule: Q04DX003 (ip), vehicle: saline 92 % of control | dose: 400.0 mg/kg/injection, schedule: Q04DX003 (ip), vehicle: saline 106 % of control

CCCNC(=O)Sc1ccc(Cl)cc1
inactive: dose: 12.5 mg/kg/injection, schedule: Q01DX001 (ip), vehicle: Klucel (hydroxypropylcellulose) (HPC) 100 % of control | dose: 12.5 mg/kg/injection, schedule: Q01DX009 (ip), vehicle: Klucel (hydroxypropylcellulose) (HPC) 95 % of control and 110 % of control | [19] 95 % of control | dose: 25.0 mg/kg/injection, schedule: Q01DX009 (ip), vehicle: Klucel (hydroxypropylcellulose) (HPC) 97 % of control and 106 % of control | [20] 94 % of control | [22] 98 % of control | [15] 96 % of control | [16] 93 % of control and 86 % of control

CCOC(=O)c1c[nH]c2cc(OCC(C)C)c(OCC(C)C)cc2c1=O
inactive: dose: 100.0 mg/kg/injection, schedule: Q01DX001 (ip), vehicle: saline with Tween-80 104 % of control | dose: 200.0 mg/kg/injection, schedule: Q01DX001 (ip), vehicle: saline with Tween-80 100 % of control | dose: 400.0 mg/kg/injection, schedule: Q01DX001 (ip), vehicle: saline with Tween-80 86 % of control

Cc1ccc(C(C)C)c(OC(=O)Nc2ccc(S(=O)(=O)NC3CCCCC3)cc2)c1
inactive: [1] 94 % of control | [2] 96 % of control | [3] 94 % of control

CCOC(=O)C(C)N (centres undefined)
inactive: [9] 93 % of control | [10] 105 % of control | [11] 93 % of control | [12] 102 % of control | [13] 97 % of control | [14] 97 % of control
